Experimental findings from publication PMC7998669, “7-(2-Anilinopyrimidin-4-yl)-1-benzazepin-2-ones Designed by a “Cut and Glue” Strategy Are Dual Aurora A/VEGF-R Kinase Inhibitors” (Molecules, 2021) are described below.

What all share (assay): radiometric 33PanQinase protein kinase assay
Assay type in all cases: biochemical
What all share (conditions): radiometric assay, 1 µM ATP

One assay has as its target T1, Aurora-A (Homo sapiens, UniProt O14965).
T1 construct: host or cells: Sf9 (baculovirus)
T1 sequence (O14965 1-403): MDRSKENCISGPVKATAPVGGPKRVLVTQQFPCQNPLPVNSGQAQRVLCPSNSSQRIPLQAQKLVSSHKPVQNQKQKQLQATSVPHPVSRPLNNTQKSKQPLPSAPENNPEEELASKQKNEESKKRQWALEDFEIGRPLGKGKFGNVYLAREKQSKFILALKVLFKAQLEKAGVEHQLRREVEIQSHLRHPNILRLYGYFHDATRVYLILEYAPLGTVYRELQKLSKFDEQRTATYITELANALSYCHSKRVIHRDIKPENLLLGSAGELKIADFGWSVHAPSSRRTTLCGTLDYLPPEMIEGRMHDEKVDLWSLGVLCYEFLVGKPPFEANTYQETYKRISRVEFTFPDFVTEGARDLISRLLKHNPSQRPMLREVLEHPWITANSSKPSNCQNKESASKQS
The method, then: (§1) The inhibitory activity of prototype 2a was determined in a panel of 24 tumor-relevant protein kinases using a radiometric assay. Only the kinases Aurora A, VEGF-R2 and VEGF-R3 were inhibited with single digit micromolar IC50 values (Table 2). Structural modifications were then implemented, particularly directed to improve inhibition of Aurora A. The so-designed congeners with small substituents at the aniline ring 2b–2n were examined for inhibition of Aurora A and of VEGF-R2, VEGF-R3 and Aurora B for comparison (Table 3).
(§2) The screening for protein kinase inhibition was performed with the radiometric ^33Panqinase activity assay at Reaction Biology Europe GmbH (Freiburg) using a robotic system (Beckmann Coulter/SagianRoboter) and 96-well plates (FlashPlates, Perkin/Elmer/NEN, Boston, MA, USA). In brief, the transfer of ^33P-phosphate into the substrate was measured with a microplate scintillation counter (Microbeta Trilux, Wallace). Protein kinases were expressed in Sf9 cells as recombinant glutathione S-transferase (GST) or polyhistidine (His)-tagged proteins in baculovirus. Isolation and purification of expressed kinases were performed with affinity chromatography by using GSH agarose (Sigma) or Ni-NTA agarose (Qiagen). The standard solution for each enzyme contained: 60 mM HEPES-NaOH (pH 7.5), 3 mM MgCl2, 3 µM sodium orthovanadate, 1.2 mM DTT, 50 µg/mL PEG20000 and 1 µM [γ-^33P]-ATP (approximately 5 × 10^5 cpm per well). In chronological order the reaction mixture was prepared: 20 µL standard solution, 5 µL ATP solution in water, 5 µL of the compound in 10% DMSO and 20 µL of enzyme/substrate mixture (50:50). Each kinase contained different substrates in different concentrations: 125 ng/50 µL Poly(Glu, Tyr)4:1 for 20 ng/50 µL IGF1-R, 25 ng/50 µL IGF1-R, 20 ng/50 µL EGF-R, 25 ng/50 µL EGF-R, 40 ng/50 µL EGF-R, 10 ng/50 µL EPHB4, 20 ng/50 µL EPHB4, 200 ng/50 µL ERBB2, 10 ng/50 µL SRC, 100 ng/50 µL FAK, 200 ng/50 µL FAK, 50 ng/50 µL VEGF-R2, 100 ng/50 µL VEGF-R3, 200 ng/50 µLTIE2; 250 ng/50 µL Poly(Glu, Tyr)4:1 for 200 ng/50 µL TIE2; 500 ng/50 µL tetra (LRRWSLG) for 50 ng/50 µL Aurora-A, 25 ng/50 µL PAK4, 25 ng/50 µL PDK1; 250 ng/50 µL tetra (LRRWSLG) for 50 ng/50 µL Aurora-B, 200 ng/50 µL Aurora-B; 125 ng/50 µL Histon H1 for 100 ng/50 µL CDK2/CycA; 250 ng/50 µL Rb-CTF for 50 ng/50 µL CDK/CycD1; 500 ng/50 µL Rb-CTF for 50 ng/50 µL CDK4/CycD1; 125 ng/50 µL Poly(ala, Glu, Lys, Tyr)6:2:5:1 for 25 ng/50 µL INS-R, 50 ng/50 µL PDGFR-beta, 100 ng/50 µL PDGFR-beta, 100 ng/50 µL FLT3, 150 ng/50 µL FLT3, 20 ng/50 µL MET, 50 ng/50 µL MET, 100 ng/50 µL MET; 250 ng/50 µL Casein for 200 ng/50 µL CK2-alpha1, 200 ng/50 µL PLK1; 1000 ng/50 µL Casein for 200 ng/50 µL PLK1, 200 ng/50 µL CK2-alpha1; 1000 ng/50 µLGSK3 (14–27) for 100 ng/50 µL AKT1; 125 ng/50 µL p53-CTM for 150 ng/50 µL CK2-alpha1, 200 ng/50 µLCK2-alpha1; 250 ng/50 µL MEK-KM for 20 ng/50 µL B-RAF-VE; autophosphorylation at ARK5, COT and SAK. After incubation (80 min, 30 °C) the reaction was stopped by adding 50 µL 2% (v/v) phosphoric acid to the reaction mixture. The microplate was washed twice with 200 µL 0.9% (v/v) saturated sodium chloride or water. The measured radioactivity, conditioned by the incorporation of [γ-^33P]-phosphate, is proportional to kinase activity. Furthermore, low control and high control were measured to determine the residual activity (%). As low controls, mixtures with substrate, but without enzyme were used to determine the unspecific binding of [γ-^33P]-phosphate to the well plate. Mixtures with enzyme, but without inhibitor were used as high controls to determine maximum enzyme activity. The IC50-values of the distinct compounds were calculated with Quattro Workflow V1.1.0.8 (Quattro Research GmbH, München, Germany). Dose response curves were generated by measurement of the residual activity of ten different inhibitor concentrations (0.1 mM, 30.0 µM, 10 µM, 3.0 µM, 1.0 µM, 0.3 µM, 0.1 µM, 30.0 nM, 10.0 nM and 3.0 nM). […]

The target of a further assay is T2, Aurora-B (Homo sapiens, UniProt Q96GD4).
T2 construct: host or cells: Sf9 (baculovirus)
The method, then: as §1, §2

For a further assay, the target named is T3, VEGF-R2 (Homo sapiens, UniProt P35968).
T3 construct: host or cells: Sf9 (baculovirus)
The method, then: as §1, §2

In the next assay the target is T4, VEGF-R3 (Homo sapiens, UniProt P35916).
T4 construct: host or cells: Sf9 (baculovirus)
The method, then: as §1, §2

One may read the IC50 as the concentration that inhibits the measured activity by half.

T4 sequence (P35916 25-1363): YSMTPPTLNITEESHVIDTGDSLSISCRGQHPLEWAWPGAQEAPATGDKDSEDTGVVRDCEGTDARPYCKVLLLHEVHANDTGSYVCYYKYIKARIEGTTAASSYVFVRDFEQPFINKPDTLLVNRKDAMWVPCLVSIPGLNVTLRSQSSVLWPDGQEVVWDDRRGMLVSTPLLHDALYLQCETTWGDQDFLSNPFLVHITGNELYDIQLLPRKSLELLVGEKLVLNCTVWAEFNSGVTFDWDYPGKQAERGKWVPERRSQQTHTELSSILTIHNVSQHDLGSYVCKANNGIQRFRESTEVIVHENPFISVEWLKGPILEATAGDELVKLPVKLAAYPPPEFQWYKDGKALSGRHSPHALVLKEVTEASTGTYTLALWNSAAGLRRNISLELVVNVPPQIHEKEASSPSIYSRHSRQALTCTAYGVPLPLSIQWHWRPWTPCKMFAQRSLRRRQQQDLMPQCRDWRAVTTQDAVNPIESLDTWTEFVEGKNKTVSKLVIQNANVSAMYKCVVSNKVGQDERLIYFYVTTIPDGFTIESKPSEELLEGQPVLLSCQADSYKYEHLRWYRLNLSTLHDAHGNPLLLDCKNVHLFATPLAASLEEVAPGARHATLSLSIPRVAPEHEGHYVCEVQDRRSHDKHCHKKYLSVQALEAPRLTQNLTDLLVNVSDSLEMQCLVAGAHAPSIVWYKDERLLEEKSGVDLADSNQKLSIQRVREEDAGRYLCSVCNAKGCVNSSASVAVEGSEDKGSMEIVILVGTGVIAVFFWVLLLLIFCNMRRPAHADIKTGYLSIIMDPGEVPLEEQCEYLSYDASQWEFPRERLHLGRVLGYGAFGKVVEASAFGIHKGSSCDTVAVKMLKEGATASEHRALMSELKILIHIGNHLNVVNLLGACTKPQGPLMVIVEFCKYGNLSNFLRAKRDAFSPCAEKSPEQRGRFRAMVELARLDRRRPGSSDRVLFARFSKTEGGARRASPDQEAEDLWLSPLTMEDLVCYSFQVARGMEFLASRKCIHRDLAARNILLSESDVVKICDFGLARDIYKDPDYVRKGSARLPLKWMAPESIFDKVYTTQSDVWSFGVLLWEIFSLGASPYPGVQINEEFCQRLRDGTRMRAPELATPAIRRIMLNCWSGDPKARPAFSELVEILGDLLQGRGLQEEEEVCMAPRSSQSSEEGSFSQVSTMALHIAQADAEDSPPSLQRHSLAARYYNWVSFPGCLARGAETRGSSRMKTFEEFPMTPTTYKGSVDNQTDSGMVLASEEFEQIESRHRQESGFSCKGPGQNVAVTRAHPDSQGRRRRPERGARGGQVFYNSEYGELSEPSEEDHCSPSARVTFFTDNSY
T3 sequence (P35968 20-1356): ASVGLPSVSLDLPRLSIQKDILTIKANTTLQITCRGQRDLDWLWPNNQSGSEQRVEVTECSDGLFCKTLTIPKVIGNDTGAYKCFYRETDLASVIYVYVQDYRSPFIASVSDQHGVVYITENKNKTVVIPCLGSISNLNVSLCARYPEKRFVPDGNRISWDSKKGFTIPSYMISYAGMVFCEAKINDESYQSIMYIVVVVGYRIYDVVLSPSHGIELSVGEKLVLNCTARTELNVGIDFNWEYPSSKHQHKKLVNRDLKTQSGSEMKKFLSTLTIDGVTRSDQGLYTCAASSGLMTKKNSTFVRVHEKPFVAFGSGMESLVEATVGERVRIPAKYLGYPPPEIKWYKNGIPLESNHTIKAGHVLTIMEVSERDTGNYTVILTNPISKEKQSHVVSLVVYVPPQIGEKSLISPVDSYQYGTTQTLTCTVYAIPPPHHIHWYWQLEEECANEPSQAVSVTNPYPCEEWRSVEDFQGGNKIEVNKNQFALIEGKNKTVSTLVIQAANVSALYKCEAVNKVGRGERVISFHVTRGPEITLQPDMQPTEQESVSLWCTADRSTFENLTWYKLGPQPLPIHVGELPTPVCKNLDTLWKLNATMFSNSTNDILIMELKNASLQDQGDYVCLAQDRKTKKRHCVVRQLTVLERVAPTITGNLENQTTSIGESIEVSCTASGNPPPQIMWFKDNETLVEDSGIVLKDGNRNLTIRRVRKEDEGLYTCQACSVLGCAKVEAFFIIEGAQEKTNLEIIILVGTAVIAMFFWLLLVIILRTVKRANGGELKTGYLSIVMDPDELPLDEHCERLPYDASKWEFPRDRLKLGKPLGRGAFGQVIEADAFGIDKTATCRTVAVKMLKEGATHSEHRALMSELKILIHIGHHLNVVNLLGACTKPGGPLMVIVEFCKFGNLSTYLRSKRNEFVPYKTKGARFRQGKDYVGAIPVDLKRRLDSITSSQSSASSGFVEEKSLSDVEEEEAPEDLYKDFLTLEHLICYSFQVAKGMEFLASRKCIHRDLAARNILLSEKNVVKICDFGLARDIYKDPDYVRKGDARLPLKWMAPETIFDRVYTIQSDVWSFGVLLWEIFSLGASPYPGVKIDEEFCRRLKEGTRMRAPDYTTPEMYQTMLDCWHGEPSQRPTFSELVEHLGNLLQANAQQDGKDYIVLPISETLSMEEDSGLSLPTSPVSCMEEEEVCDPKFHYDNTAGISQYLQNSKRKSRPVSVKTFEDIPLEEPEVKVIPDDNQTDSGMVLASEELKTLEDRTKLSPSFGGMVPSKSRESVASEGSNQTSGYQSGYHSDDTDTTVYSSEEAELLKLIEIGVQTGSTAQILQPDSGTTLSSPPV
T2 sequence (Q96GD4 whole entry): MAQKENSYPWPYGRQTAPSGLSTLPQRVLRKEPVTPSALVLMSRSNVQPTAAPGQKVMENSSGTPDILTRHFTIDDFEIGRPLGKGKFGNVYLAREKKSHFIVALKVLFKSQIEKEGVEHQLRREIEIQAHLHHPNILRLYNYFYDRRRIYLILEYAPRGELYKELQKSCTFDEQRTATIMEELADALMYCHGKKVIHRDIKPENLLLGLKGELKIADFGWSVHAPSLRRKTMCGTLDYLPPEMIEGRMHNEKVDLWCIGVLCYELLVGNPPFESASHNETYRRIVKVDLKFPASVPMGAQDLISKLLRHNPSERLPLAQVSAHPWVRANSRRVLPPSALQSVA

`O=C1CCCc2cc(-c3ccnc(Nc4ccc(O)cc4)n3)ccc2N1` [Compound 2e, 7-[2-(4-Hydroxyanilino)pyrimidin-4-yl]-1,3,4,5-tetrahydro-2H-1-benzazepin-2-one]: the IC50 against Aurora-A turned out to be 990 nM; against Aurora-B, 3500 nM; at VEGF-R2, 1100 nM; on VEGF-R3 it was 1500 nM.

Take `COc1ccc(Nc2nccc(-c3ccc4c(c3)CCCC(=O)N4)n2)cc1O` [Compound 2n, 7-[2-(3-Hydroxy-4-methoxyanilino)pyrimidin-4-yl]-1,3,4,5-tetrahydro-2H-1-benzazepin-2-one]: the half-maximal inhibitory concentration (IC50) on Aurora-A was determined as 1400 nM; on Aurora-B, 4500 nM; against VEGF-R2, 630 nM; against VEGF-R3, 550 nM.

For `O=C1CCCc2cc(-c3ccnc(Nc4ccccc4)n3)ccc2N1` [Compound 2a, 7-(2-Anilinopyrimidin-4-yl)-1,3,4,5-tetrahydro-2H-1-benzazepin-2-one], the IC50 is 2400 nM at Aurora-A, 26000 nM against Aurora-B, 2800 nM against VEGF-R2 and 5900 nM against VEGF-R3.
